Results from patent publication US7939546B2, “Quinoline derivatives for modulating DNA methylation” (SuperGen, Inc., priority 2007, dated 2011).
Several values for one entry are separate records, joined by “and”; a condition that tells them apart may be missing. Identical values can stand only once. Counter-ions that a name gives are not always drawn.

Legend:
DNMT1 = DNMT1 (Homo sapiens, UniProt P26358); experiment: Selective depletion of DNMT1 by Western blot in treated HCT116 cells; format: cell-based; parameters: Protein extracts (equivalent to 100 μg) were isolated from HCT116 cells; endogenous in cells; host or cells: HCT116; conditions: for % DNMT1 protein level remaining at 5 µM: HCT-116, 5 μM; for % DNMT1 protein level remaining at 10 µM: HCT-116, 10 μM; for % DNMT1 protein level remaining at 100 µM: HCT-116, 100 μM
Sequence of DNMT1 (P26358 whole entry): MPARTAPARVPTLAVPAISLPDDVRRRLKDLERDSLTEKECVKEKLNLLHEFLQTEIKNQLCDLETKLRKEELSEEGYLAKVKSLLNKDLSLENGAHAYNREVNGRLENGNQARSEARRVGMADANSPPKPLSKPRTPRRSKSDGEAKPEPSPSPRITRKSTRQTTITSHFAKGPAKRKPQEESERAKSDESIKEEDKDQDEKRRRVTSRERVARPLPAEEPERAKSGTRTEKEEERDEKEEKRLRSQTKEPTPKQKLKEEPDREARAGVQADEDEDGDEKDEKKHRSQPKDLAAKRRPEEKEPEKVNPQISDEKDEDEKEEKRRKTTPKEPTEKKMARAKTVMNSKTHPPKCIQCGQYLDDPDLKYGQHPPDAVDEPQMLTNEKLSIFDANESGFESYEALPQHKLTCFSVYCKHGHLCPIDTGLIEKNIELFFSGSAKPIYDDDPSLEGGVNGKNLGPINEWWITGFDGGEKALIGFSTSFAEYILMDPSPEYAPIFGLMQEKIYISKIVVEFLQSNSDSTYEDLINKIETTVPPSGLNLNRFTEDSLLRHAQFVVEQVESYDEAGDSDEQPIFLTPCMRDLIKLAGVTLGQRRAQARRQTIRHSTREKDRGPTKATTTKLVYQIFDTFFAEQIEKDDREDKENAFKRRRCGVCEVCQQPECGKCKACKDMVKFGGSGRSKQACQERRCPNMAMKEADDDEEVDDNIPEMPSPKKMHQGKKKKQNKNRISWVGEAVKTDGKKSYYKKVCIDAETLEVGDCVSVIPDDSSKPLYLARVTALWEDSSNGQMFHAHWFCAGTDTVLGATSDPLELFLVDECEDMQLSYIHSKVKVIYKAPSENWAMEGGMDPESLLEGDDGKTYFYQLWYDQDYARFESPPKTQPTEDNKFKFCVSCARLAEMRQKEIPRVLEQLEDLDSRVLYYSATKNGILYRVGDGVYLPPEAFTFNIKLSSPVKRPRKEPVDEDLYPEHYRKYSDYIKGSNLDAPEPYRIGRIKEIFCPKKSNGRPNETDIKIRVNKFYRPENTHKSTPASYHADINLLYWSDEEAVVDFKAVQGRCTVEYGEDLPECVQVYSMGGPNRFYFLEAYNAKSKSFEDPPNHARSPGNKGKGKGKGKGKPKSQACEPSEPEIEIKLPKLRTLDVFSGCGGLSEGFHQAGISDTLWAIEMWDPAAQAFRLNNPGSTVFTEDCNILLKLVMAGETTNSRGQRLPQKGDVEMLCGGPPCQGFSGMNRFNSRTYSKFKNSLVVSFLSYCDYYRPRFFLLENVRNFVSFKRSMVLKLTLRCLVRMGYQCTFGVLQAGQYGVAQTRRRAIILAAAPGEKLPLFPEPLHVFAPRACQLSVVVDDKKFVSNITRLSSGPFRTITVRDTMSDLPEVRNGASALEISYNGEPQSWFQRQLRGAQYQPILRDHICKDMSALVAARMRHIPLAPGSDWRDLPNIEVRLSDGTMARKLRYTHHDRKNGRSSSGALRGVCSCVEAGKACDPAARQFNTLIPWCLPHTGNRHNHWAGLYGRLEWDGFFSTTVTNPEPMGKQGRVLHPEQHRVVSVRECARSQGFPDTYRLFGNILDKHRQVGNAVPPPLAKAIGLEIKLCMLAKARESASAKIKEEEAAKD
Text: Biol. 2005, 11, 4727-41.]. For DNMT1, commercially available antibodies from Santa Cruz or New England Biolabs were used.

CMV-EE210 cell line = experiment: Toxicity (TD50, cell viability) reported with the GFP assay; conditions: Dose at which cells are >50% viable
Description: The demethylating activity of non-bis-quaternary 4-anilinoquinolines were tested in a cell-based GFP (green fluorescent protein) assay. This assay has a GFP gene regulated by the CMV promoter and is sensitive to the methylation of CpG sites within the promoter. A decrease in methylation resulting from exposure to a methylation inhibitor leads to GFP expression and is readily scored. Specifically, the CMV-EE210 cell line containing the epigenetically silenced GFP transgene was used to assay for reactivation of GFP expression by flow cytometry. CMV-EE210 was made by transfecting NIH 3T3 cells with the pTR-UF/UF1/UF2 plasmid (Zolotuhin et al., 1996), which is comprised of pBS(+) (Stratagene, Inc.) containing a cytomegalovirus (CMV) promoter driving a humanized GFP gene adapted for expression in mammalian cells. After transfection, high-level GFP expressing cells were initially selected by FACS analysis and sorting using a MoFlo cytometer (Cytomation, Inc.). […] To screen for reactivation of CMV-EE210, decitabine (at […]) or a test compound (at a concentration of 30-50 μM) was added to complete medium (phenol red free DMEM (Gibco, Life Technologies) supplemented with 10% fetal bovine serum (Hyclone)). Cells were then seeded to 30% confluence (˜5000 cell/well) in 96 well plate containing the test compounds and grown for three days in at 37° C. in 5% CO2. The plates were examined under a fluorescent microscope using a 450-490 excitation filter (13 filter cube, Leica, Deerfield Ill.). Wells were scored g1 positive if 10% of viable cells express GFP, g2 positive if 30% of viable cells express GFP and g3 if greater than 75% of the viable cells express GFP. GFP IC 50 is the concentration of an inhibitor that (like an IC50) is the dose at which the GFP expression level goes from g3 to g1/2.

1-methyl-4-[4-(4-{7-nitroquinolin-4-ylamino}benzamido)-phenylamino]pyridinium dichloride [Cpd. S]
% DNMT1 Level (DNMT1; 5 μM): 87% | % DNMT1 Level (DNMT1; 10 μM): 101% | % DNMT1 Level (DNMT1; 100 μM): 69% | TD50 (CMV-EE210 cell line): 25 µM

Nc1cc(Nc2cccc(C(=O)Nc3ccc(Nc4ccnc5ccccc45)cc3)c2)nc(N)n1 (as salt: hydrochloride) [Cpd. FF2, 3-[(2,6-Diamino-4-pyrimidinyl)amino]-N-[4-(4-quinolinylamino)-phenyl]benzamide dihydrochloride]
melting point: > 300 °C

C[n+]1ccc(Nc2ccc(NC(=O)c3ccc(Nc4ccnc5ccc([N+](=O)[O-])cc45)cc3)cc2)cc1 (as salt: hydrochloride) [Cpd. G, 1-methyl-4-(4-(4-(6-nitroquinolin-4-ylamino)benzamido)phenylamino)pyridinium chloride hydrochloride]
melting point: 183 to 187 °C

Cc1cc(Nc2ccc(C(=O)Nc3ccc(Nc4ccnc5cc(N)ccc45)cc3)cc2)nc(N)n1 (as salt: hydrochloride) [Cpd. GG2, 4-[(2-Amino-6-methyl-4-pyrimidinyl)amino]-N-{4-[(7-amino-4-quinolinyl)amino]phenyl}benzamide dihydrochloride]
melting point: 257 to 262 °C and 257 to 261 °C

Cc1cc(Nc2ccc(C(=O)Nc3ccc(Nc4ccnc5ccc(N)cc45)cc3)cc2)nc(N)n1 (as salt: hydrochloride) [Cpd. GG3, 4-[(2-amino-6-methyl-4-pyrimidinyl)amino]-N-{4-[(6-amino-4-quinolinyl)amino]phenyl}benzamide dihydrochloride]
melting point: > 300 °C

Cc1cc(Nc2ccc(C(=O)Nc3ccc(Nc4ccnc5ccc([N+](=O)[O-])cc45)cc3)cc2)nc(N)n1 (as salt: hydrochloride) [Cpd. GG4, 4-[(2-Amino-6-methyl-4-pyrimidinyl)amino]-N-{4-[(6-nitro-4-quinolinyl)amino]phenyl}benzamide dihydrochloride]
melting point: 295 to 300 °C

Cc1cc(Nc2ccc(C(=O)Nc3ccc(Nc4ccnc5cc([N+](=O)[O-])ccc45)cc3)cc2)nc(N)n1 (as salt: hydrochloride) [Cpd. GG5, 4-[(2-Amino-6-methyl-4-pyrimidinyl)amino]-N-{4-[(7-nitro-4-quinolinyl)amino]phenyl}benzamide dihydrochloride]
melting point: > 300 °C

Cc1cc(Nc2ccc(NC(=O)c3ccc(Nc4ccnc5ccc([N+](=O)[O-])cc45)cc3)cc2)nc(N)n1 (as salt: hydrochloride) [Cpd. H, N-(4-(2-amino-6-methylpyrimidin-4-ylamino)phenyl)-4-(6-nitroquinolin-4-ylamino)benzamide hydrochloride]
melting point: 301 to 305 °C

Cc1cc(Nc2ccc(C(=O)Nc3ccc(Nc4ccnc5ccc(N(C)C)cc45)cc3)cc2)nc(N)n1 (as salt: hydrochloride) [Cpd. HH, 4-[(2-amino-6-methyl-4-pyrimidinyl)amino]-N-(4-{[6-(dimethylamino)-4-quinolinyl]amino}phenyl)benzamide dihydrochloride]
melting point: > 300 °C

Cc1cc(Nc2ccc(NC(=O)c3ccc(Nc4ccnc5c(F)c(F)c(F)cc45)cc3)cc2)nc(N)n1 (as salt: hydrochloride) [Cpd. KK, n-[4-(2-amino-6-methylpyrimidin-4-ylamino)phenyl]-4-(6,7,8-trifluoroquinolin-4-ylamino)benzamide dihydrochloride]
melting point: > 280 °C

C/C(=N\N=C(N)N)c1ccc(NC(=O)c2ccc(Nc3ccnc4ccc(N(C)C)cc34)cc2)cc1 (as salt: hydrochloride) [Cpd. NN, (E)-N-(4-(1-((Diaminomethylene)hydrazono)ethyl)phenyl)-4-(6-(dimethylamino)quinolin-4-ylamino)benzamide Dihydrochloride]
melting point: > 280 °C

C/C(=N\N=C(N)N)c1ccc(C(=O)Nc2ccc(Nc3ccnc4ccc(N(C)C)cc34)cc2)cc1 (as salt: hydrochloride) [Cpd. PP, 4-[(1E)-N-(diaminomethylene)ethanehydrazonoyl]-N-(4-{[6-(dimethylamino)-4-quinolinyl]amino}phenyl)benzamide dihydrochloride]
melting point: > 300 °C

Nc1cc(Nc2cccc(C(=O)Nc3ccc(Nc4ccnc5ccc([N+](=O)[O-])cc45)cc3)c2)nc(N)n1 (as salt: hydrochloride) [Cpd. RR1, 3-[(2,6-diamino-4-pyrimidinyl)amino]-N-{4-[(6-nitro-4-quinolinyl)amino]phenyl}benzamide dihydrochloride]
melting point: > 300 °C

Cc1cc(Nc2cccc(C(=O)Nc3ccc(Nc4ccnc5ccc([N+](=O)[O-])cc45)cc3)c2)nc(N)n1 (as salt: hydrochloride) [RR2, 3-[(2-amino-6-methyl-4-pyrimidinyl)amino]-N-{4-[(6-nitro-4-quinolinyl)amino]phenyl}benzamide dihydrochloride]
melting point: > 300 °C

Cc1cc(Nc2cccc(C(=O)Nc3ccc(Nc4ccnc5ccc(N)cc45)cc3)c2)nc(N)n1 (as salt: hydrochloride) [RR3, 3-[(2-Amino-6-methyl-4-pyrimidinyl)amino]-N-{4-[(6-amino-4-quinolinyl)amino]phenyl}benzamide dihydrochloride]
melting point: 280 to 284 °C

C[n+]1ccc(Nc2cccc(NC(=O)c3ccc(Nc4ccnc5ccccc45)cc3)c2)cc1 [Cpd. A, 1-methyl-4-(3-{[4-(4-quinolinylamino)benzoyl]amino}anilino)pyridinium chloride]
% DNMT1 protein level remaining at 5 µM (DNMT1): 99% | % DNMT1 protein level remaining at 10 µM (DNMT1): 117% | % DNMT1 protein level remaining at 100 µM (DNMT1): 119% | TD50 (CMV-EE210 cell line): 12.5 µM

C[n+]1ccc(Nc2ccc(NC(=O)c3ccc(Nc4ccnc5ccccc45)cc3)cc2)cc1 [Cpd. B, 1-methyl-4-(4-(4-(quinolin-4-ylamino)benzamido)phenylamino)pyridinium chloride hydrochloride]
% DNMT1 protein level remaining at 5 µM (DNMT1): 102% | % DNMT1 protein level remaining at 10 µM (DNMT1): 98% | % DNMT1 protein level remaining at 100 µM (DNMT1): 81% | TD50 (CMV-EE210 cell line): 25 µM

CN(C)c1ccc2c(Nc3ccc(NC(=O)c4ccc(Nc5cc[n+](C)cc5)cc4)cc3)ccnc2c1.Cl.[Cl-] [Cpd. DD, 7-(dimethylamino)-4-[4-({4-[(1-methyl-4-pyridiniumyl)amino]benzoyl}amino)aniline]quinolinium dichloride]
% DNMT1 Level (DNMT1; 5 μM): 90% | % DNMT1 Level (DNMT1; 10 μM): 74% | % DNMT1 Level (DNMT1; 100 μM): 52% | TD50 (CMV-EE210 cell line): 25 µM

C[n+]1ccc(Nc2cccc(NC(=O)c3ccc(Nc4ccnc5ccc([N+](=O)[O-])cc45)cc3)c2)cc1 [Cpd. F, 1-methyl-4-(3-{[4-(6-nitro-4-quinolinylamino)benzoyl]amino}anilino)pyridinium chloride]
% DNMT1 protein level remaining at 5 µM (DNMT1): 145% | % DNMT1 protein level remaining at 10 µM (DNMT1): 210% | % DNMT1 protein level remaining at 100 µM (DNMT1): 155% | TD50 (CMV-EE210 cell line): 25 µM

Cc1cc(Nc2ccc(NC(=O)c3ccc(Nc4ccnc5ccc(Cl)cc45)cc3)cc2)nc(N)n1 [Cpd. LL, N-[4-(2-amino-6-methylpyrimidin-4-ylamino)phenyl]-4-(6-chloroquinolin-4-ylamino)benzamide]
% DNMT1 protein level remaining at 5 µM (DNMT1): 70% | % DNMT1 protein level remaining at 10 µM (DNMT1): 15% | melting point: 250 to 254 °C

CN(C)c1ccc2nccc(Nc3ccc(NC(=O)c4cccc(Nc5cc[n+](C)cc5)c4)cc3)c2c1 [Cpd. OO1, 6-(dimethylamino)-4-[4-({3-[(1-methyl-4-pyridiniumyl)amino]benzoyl}amino)anilino]-quinolinium dichloride]
% DNMT1 protein level remaining at 5 µM (DNMT1): 25% | % DNMT1 protein level remaining at 10 µM (DNMT1): 15% | melting point: 170 to 173 °C

CN(C)c1ccc2nccc(Nc3ccc(NC(=O)c4ccc(Nc5cc[n+](C)cc5)cc4)cc3)c2c1 [Cpd. OO2, 6-(Dimethylamino)-4-[4-({4-[(1-methyl-4-pyridiniumyl)amino]benzoyl}amino)-anilino]quinolinium dichloride]
% DNMT1 protein level remaining at 5 µM (DNMT1): 50% | % DNMT1 protein level remaining at 10 µM (DNMT1): 95% | melting point: 156 °C (dec.)

C[n+]1ccc(Nc2ccc(NC(=O)c3ccc(Nc4ccnc5cc(N)ccc45)cc3)cc2)cc1 [Cpd. W, 1-methyl-4-[4-(4-{7-aminoquinolin-4-ylamino}benzamido)-phenylamino]pyridinium dichloride]
% DNMT1 protein level remaining at 5 µM (DNMT1): 45% | % DNMT1 protein level remaining at 10 µM (DNMT1): 75% | melting point: 242 to 245 °C
